“Also recorded” adds a separate entry of the source.
Assays:
U87MG cells [1] = test: Ang2 dependent adhesion of U87MG cells to Ang2-coated wells (CellTiter-Glo luminescence); format: cell-based, human; details: for Ang2 dependent cell adhesion inhibition activity: Example 5.2, peptide 100 μg/ml, among the 41 peptides; for inhibition activity against the binding of Ang2 and integrin: FIG. 10, U87MG adhesion to Ang2-coated wells, each peptide 100 μg/ml
Description: A 96-well plate was treated with 100 μl of a solution obtained by diluting Ang2 (R&D systems; 623-AN-025/CF) in a phosphate buffered saline (PBS) at a concentration of 10 μg/ml and incubated at 4° C. for 16 hours so that the wells were coated with Ang2. Thereafter, the Ang2-coated 96 wells were washed twice with PBS, treated with 200 μl of PBS containing 2% (v/v) bovine serum albumin (BSA) and then incubated at a room temperature for 2 hours for blocking. For a negative control, wells that were blocked without Ang2 coating (i.e., treated with BSA only) were prepared.
150 μl of the thus obtained cell suspension was added to each well of the 96-well plate that was prepared by performing coating and blocking procedures and incubating the plate in a CO2 incubator at 37° C. for 2 hours to induce cell adhesion.
Then, the plate was washed 4 times with serum-free media that was warmed to 37° C. to remove cells that were not adhered. The adhesion level of cells was quantified by adding 200 μl of CellTiter-Glo reagent (Promega) diluted in IMDM at 1:1 and then, measuring luminescence at EnVision® Multilabel Reader (PerkinElmer) after 10 min.
When Ang2-coated plates were treated with U87MG cells in accordance with the same methods as in Example 1.1, they were co-treated with one of the 41 peptides derived from Ang2 set forth in Table 2 to investigate the inhibition effects of the peptides against the adhesion of U87MG cells (see FIG. 8). Each peptide was treated at a concentration of 100 μg/ml and the number of U87MG cells treated with each peptide was about 4×10^4. The measurement of cell adhesion level was carried out in the same manner as Example 1.1. That is, after the addition of 200 μl of CellTiter-Glo reagent (Promega) diluted in IMDM at 1:1, their luminescence was measured at EnVision® Multilabel Reader (PerkinElmer) after 10 min.
When Ang2-coated plates were treated with U87MG cells in accordance with the same methods as in Example 1.1, they were co-treated with the C-body produced in Example 8 to investigate inhibition effects of C-body treatment on the adhesion of U87MG cells. The C-body was treated at a concentration of 20 μg/ml or 5 μg/ml, and the number of U87MG cells used was about 4×10^4 at each concentration.

integrin (αVβ3) = target: T1, integrin (αVβ3) (Homo sapiens, UniProt P05106+P06756); test: ELISA: binding of Ang2 protein (wild type or Q362A) to coated integrin; details: 5 μg/ml protein, FIG. 11
T1 construct: purchased R&D systems
T1 sequence (P06756 31-889 limits assumed): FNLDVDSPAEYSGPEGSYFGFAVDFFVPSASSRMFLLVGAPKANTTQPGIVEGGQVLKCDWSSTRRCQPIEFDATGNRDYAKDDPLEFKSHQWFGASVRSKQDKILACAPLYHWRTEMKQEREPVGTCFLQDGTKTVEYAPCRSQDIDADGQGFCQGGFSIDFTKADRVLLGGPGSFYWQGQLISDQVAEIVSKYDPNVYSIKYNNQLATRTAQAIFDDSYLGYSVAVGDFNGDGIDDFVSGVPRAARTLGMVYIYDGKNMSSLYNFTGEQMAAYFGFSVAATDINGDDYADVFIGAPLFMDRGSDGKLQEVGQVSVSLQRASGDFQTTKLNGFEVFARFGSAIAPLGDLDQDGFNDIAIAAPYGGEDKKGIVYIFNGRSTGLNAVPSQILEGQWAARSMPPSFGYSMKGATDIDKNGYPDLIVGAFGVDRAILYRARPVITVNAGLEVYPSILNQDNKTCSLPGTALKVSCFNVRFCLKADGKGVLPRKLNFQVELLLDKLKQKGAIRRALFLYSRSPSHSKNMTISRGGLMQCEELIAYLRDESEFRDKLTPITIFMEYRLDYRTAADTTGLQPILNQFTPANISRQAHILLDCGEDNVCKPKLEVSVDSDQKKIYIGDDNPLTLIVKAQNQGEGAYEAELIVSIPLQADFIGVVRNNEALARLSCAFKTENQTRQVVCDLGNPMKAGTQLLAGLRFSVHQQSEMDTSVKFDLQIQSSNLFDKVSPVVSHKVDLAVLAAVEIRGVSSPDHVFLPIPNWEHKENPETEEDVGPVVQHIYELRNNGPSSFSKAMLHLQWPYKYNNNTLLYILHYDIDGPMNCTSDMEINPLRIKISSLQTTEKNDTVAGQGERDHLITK
T1 sequence (P06756 891-992 partner limits assumed): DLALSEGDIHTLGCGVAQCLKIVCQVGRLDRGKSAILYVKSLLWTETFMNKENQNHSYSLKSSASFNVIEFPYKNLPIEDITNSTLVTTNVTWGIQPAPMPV
T1 sequence (P05106 27-718 limits assumed): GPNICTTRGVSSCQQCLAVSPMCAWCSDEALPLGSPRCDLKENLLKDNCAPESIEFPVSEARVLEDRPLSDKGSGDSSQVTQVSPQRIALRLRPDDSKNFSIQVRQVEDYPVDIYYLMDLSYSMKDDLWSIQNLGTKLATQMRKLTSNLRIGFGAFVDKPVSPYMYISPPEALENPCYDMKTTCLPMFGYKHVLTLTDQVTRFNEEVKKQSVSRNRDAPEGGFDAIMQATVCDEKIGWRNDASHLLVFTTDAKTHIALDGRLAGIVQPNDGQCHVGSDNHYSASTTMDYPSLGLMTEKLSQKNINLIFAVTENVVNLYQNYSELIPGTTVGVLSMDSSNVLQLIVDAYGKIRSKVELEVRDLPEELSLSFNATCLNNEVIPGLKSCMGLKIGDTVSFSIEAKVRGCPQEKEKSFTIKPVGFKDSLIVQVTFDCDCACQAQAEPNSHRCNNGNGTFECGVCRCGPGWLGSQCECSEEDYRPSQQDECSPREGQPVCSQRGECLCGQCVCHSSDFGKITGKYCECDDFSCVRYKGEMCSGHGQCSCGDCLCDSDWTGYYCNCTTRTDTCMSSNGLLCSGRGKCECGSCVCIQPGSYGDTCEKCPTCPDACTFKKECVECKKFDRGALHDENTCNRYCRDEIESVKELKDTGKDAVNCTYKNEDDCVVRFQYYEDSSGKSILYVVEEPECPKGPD
Description: After an ELISA plate was coated with diluents obtained by diluting 3 kinds of integrin proteins (alpha5beta1 (α5β1; α5: NCBI Accession No. P08648, β1: NCBI Accession No. P05556), alphaVbeta1 (αVβ1; αV: NCBI Accession No. P06756, β1: NCBI Accession No. P05556), and alphaVbeta3 (αVβ3; αV: NCBI Accession No. P06756, β3: NCBI Accession No. P05106); R&D systems)) in PBS at a concentration of 5 μg/ml (18 hours, 4° C.), it was blocked with 1% (v/v) BSA at a room temperature for 2 hours. Thereafter, it was treated with Ang2 protein having FLAG sequences (DYKDDDDK, Sigma) tagged at its N-terminal (FLAG-Ang2, 0.1 ml of Ang2 protein solution diluted in PBS at a concentration of 10 μg/ml), incubated at a room temperature for 2 hours, and washed 5 times with PBS-t (0.1% (v/v) triton X-100 in PBS). Then, it was followed by the addition of anti-FLAG antibody (Sigma) conjugated with horse radish peroxidase (HRP) and washed 5 times with PBS-t. Binding between Ang2 and 3 kinds of the integrins was verified indirectly by measuring the quantity of anti-FLAG antibody remaining in the ELISA plate through color development reaction using TMB (3,3,5,5-tetramethylbenzidine) as a substrate of HRP. As a negative control, one plate which was blocked without Ang2 protein treatment (BSA treatment only) was used. […]

Tie2 proteins (Q02763) = target: T2, Tie2 proteins (Q02763) (Homo sapiens, UniProt Q02763); test: ELISA: binding of Ang2 protein (wild type or Q362A) to coated Tie2; details: Tie2 coated ELISA plates; FIG. 12
T2 construct: purchased R&D systems
T2 sequence (Q02763 23-1124): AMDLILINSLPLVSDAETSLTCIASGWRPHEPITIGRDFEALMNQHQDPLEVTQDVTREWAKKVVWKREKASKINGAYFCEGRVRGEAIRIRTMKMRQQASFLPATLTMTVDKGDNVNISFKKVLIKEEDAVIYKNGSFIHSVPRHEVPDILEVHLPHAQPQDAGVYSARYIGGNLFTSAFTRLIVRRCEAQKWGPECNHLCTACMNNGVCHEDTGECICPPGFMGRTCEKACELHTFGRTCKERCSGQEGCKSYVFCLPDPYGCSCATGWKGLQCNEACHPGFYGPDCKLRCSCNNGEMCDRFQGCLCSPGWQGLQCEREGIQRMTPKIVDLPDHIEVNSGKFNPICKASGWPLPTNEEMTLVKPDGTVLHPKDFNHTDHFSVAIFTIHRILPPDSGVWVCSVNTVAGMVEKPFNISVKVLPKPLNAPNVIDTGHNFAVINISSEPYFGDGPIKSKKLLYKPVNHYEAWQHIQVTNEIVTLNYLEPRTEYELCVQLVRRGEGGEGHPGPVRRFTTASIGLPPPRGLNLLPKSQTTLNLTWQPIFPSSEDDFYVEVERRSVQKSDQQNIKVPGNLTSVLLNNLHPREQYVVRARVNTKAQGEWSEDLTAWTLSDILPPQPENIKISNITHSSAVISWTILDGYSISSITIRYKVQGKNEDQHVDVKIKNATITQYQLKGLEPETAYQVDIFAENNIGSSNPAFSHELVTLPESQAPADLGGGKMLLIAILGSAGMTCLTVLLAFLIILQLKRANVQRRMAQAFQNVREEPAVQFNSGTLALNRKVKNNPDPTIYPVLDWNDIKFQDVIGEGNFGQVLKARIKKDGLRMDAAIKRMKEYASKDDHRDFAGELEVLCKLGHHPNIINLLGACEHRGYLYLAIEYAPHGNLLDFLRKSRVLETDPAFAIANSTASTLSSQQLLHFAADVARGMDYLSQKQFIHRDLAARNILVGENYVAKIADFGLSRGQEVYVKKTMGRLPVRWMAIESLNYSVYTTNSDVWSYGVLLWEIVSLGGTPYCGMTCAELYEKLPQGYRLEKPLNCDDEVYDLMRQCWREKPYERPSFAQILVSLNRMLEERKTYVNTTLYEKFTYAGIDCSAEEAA
Text: The Y axis represents binding levels of each Ang2 protein to coated Tie2 or negative control BSA.

U87MG cells [2] = test: U87MG cancer cell invasion in matrigel-coated transwell chamber; format: cell-based, human; details: 5 μg/ml in lower chamber, 48 hours; FIG. 14
Description: U87MG cells which underwent serum starvation for two days were detached using a cell dissociation solution (EDTA solution) and diluted in 0% serum IMDM media, and then 7.5×10^4 of the cells were each treated in an upper chamber of a matrigel-coated transwell chamber (24 wells, BD bioscience). Lower chambers were filled with a diluent obtained by diluting wild type Ang2 protein or its Q362A modified form (see Example 6) in 2% serum IMDM media at a concentration of 5 μg/ml. After 48 hours passed, the cells were dyed using calcein-AM solution (4 μg/ml; BD Biosciences) and observed using a fluorescence microscope to measure the number of the cells which invaded toward the bottom.
The left part of FIG. 14 indicates the number of the cells that migrated to the lower chambers, and the right part illustrates the observation results of fluorescence treatment of the cells which migrated to the lower chambers, using a fluorescence microscope. In FIG. 14, ‘−’ indicates a negative control where the lower chamber was not treated with Ang2 protein or its modified form.

Molecule	inhibition activity against the binding of Ang2 and integrin (U87MG cells [1])	also measured
EYWLG NEFVS QLTNQ (EYWLGNEFVSQLTNQ; Synthetic Peptide 15) [SEQ ID No. 15, 15 consecutive amino acids (352 to 366) of the Ang2 protein]	remarkably high inhibition activity	Ang2 dependent cell adhesion inhibition activity (U87MG cells [1]; listed as 15): best Ang2 dependent cell adhesion inhibition activity; Ang2 dependent cell adhesion inhibition activity (U87MG cells [1]; listed as Peptide 15): excellent Ang2-dependent cell adhesion inhibition activity
HTTNG IYTLT FPNST (HTTNGIYTLTFPNST; Synthetic Peptide 3) [SEQ ID No. 3]	remarkably high inhibition activity; also recorded: excellent integrin-Ang2 binding inhibition activity	–
IYTLT FPNST EEIKA (IYTLTFPNSTEEIKA; Synthetic Peptide 4) [SEQ ID No. 4]	remarkably high inhibition activity; also recorded: excellent integrin-Ang2 binding inhibition activity	–
LNYRI HLKGL TGTAG (LNYRIHLKGLTGTAG; Synthetic Peptide 24) [SEQ ID No. 24]	remarkably high inhibition activity	–
NEFVS QLTNQ QRYVL (NEFVSQLTNQQRYVL; Synthetic Peptide 16) [SEQ ID No. 16]	remarkably high inhibition activity	–
QLTNQ QRYVL KIHLK (QLTNQQRYVLKIHLK; Synthetic Peptide 17) [SEQ ID No. 17]	remarkably high inhibition activity	–
WKGSG YSLKA TTMMI (WKGSGYSLKATTMMI; Synthetic Peptide 40) [SEQ ID No. 40]	remarkably high inhibition activity	–
Q362A: FLAG-Ang2 protein modified form where glutamine at amino acid 362 (SEQ ID No. 42) is substituted by alanine (protein, FLAG tag; Human Ang2 protein) MWQIVFFTLSCDLVLAAAYNNFRKSMDSIGKKQYQVQHGSCSYTFLLPEMDNCRSSSSPYVSNAVQRDAPLEYDDSVQRLQVLENIMENNTQWLMKLENYIQDNMKKEMVEIQQNAVQNQTAVMIEIGTNLLNQTAEQTRKLTDVEAQVLNQTTRLELQLLEHSLSTNKLEKQILDQTSEINKLQDKNSFLEKKVLAMEDKHIIQLQSIKEEKDQLQVLVSKQNSIIEELEKKIVTATVNNSVLQKQQHDLMETVNNLLTMMSTSNSAKDPTVAKEEQISFRDCAEVFKSGHTTNGIYTLTFPNSTEEIKAYCDMEAGGGGWTIIQRREDGSVDFQRTWKEYKVGFGNPSGEYWLGNEFVSALTNQQRYVLKIHLKDWEGNEAYSLYEHFYLSSEELNYRIHLKGLTGTAGKISSISQPGNDFSTKDGDNDKCICKCSQMLTGGWWFDACGPSNLNGMYYPQRQNTNKFNGIKWYYWKGSGYSLKATTMMIRPADF	–	binding level to integrin relative to wild type Ang2 (integrin (αVβ3)): ≤ 50%; inhibition of Ang2-integrin binding by Q362A modification (integrin (αVβ3)): ≥ 50%; binding level to Tie2 compared with wild type Ang2 (Tie2 proteins (Q02763)): did not show any significant differences; induction level of cancer cell invasion compared with wild type Ang2 protein (U87MG cells [2]): remarkably low induction level of cancer cell invasion (approximately half or so)

— patent publication US9193768B2, “Peptide for inhibition of binding between angiopoietin-2 and integrin and use thereof” (Samsung Electronics Co., Ltd., priority 2012, dated 2015)
